Test results: patent US5567692A, “9-[(substituted glycyl) amido)]-6-demethyl-6-deoxytetracyclines” (priority 1995, dated 1996)
Where a name gives a salt, the structure may show the parent alone. Read-outs that look alike come from different tables or passages of the source.

Columns and labels:
[1] = system: S. aureus UBMS 90-3; test: MIC, agar dilution; format: cell-based; conditions: Staphylococcus aureus, UBMS903, 18 h
[2] = system: S. aureus SMITH (MP); test: MIC, agar dilution; format: cell-based; conditions: Staphylococcus aureus, 18 h; S. aureus SMITH (MP); read-out: MIC
[3] = system: S. aureus ROSE (MP); test: MIC, agar dilution; format: cell-based; conditions: Staphylococcus aureus, 18 h
[4] = system: E. coli J3272 Tet D; test: microbe, parasite or virus in culture; format: cell-based; conditions: Escherichia coli, J3272TETD, 18 h
[5] = system: S. aureus IVES 1983; test: MIC, agar dilution; format: cell-based; conditions: Staphylococcus aureus, IVES1983, 18 h
[6] = system: S. aureus UBMS 90-2 Tet M; test: microbe, parasite or virus in culture; format: cell-based; conditions: Staphylococcus aureus, UBMS902TETM, 18 h
[7] = system: S. aureus UBMS 88-5 Tet M; test: microbe, parasite or virus in culture; format: cell-based; conditions: Staphylococcus aureus, UBMS885TETM, 18 h
[8] = system: S. aureus NEMC 8769; test: MIC, agar dilution; format: cell-based
[9] = system: E. coli ATCC 25922; test: MIC, agar dilution; format: cell-based; conditions: Escherichia coli, ATCC25922, 18 h
[10] = system: S. hemolyticus AVHAH 88-3; test: MIC, agar dilution; format: cell-based; conditions: Streptococcus pyogenes, AVHAH883, 18 h
[11] = system: E. coli #311 (MP); test: MIC, agar dilution; format: cell-based; conditions: Escherichia coli, 18 h
[12] = system: E. coli J3272 Tet C; test: microbe, parasite or virus in culture; format: cell-based; conditions: Escherichia coli, J3272TETC, 18 h
[13] = system: E. coli UBMS 88-1 Tet B; test: microbe, parasite or virus in culture; format: cell-based; conditions: Escherichia coli, UBMS881TETB, 18 h
[14] = system: S. aureus ATCC 29213; test: MIC, agar dilution; format: cell-based; conditions: Staphylococcus aureus, ATCC29213, 18 h, S. aureus ATCC 29213
[15] = system: E. coli J2175; test: MIC, agar dilution; format: cell-based; conditions: Escherichia coli, 18 h, read-out: MIC
[16] = system: S. aureus UBMS 88-7 Tet K; test: microbe, parasite or virus in culture; format: cell-based; conditions: Staphylococcus aureus, UBMS887TETK, 18 h
[17] = system: X. maltophilia NEMC 87210; test: MIC, agar dilution; format: cell-based; conditions: Stenotrophomonas maltophilia, NEMC87210, 18 h
[18] = system: E. faecalis ATCC 29212; test: MIC, agar dilution; format: cell-based; conditions: Enterococcus faecalis, ATCC29212, 18 h
[19] = system: E. coli UBMS 90-4 Tet M; test: microbe, parasite or virus in culture; format: cell-based; conditions: Escherichia coli, UBMS904TETM, 18 h
[20] = system: S. aureus IVES 2943; test: MIC, agar dilution; format: cell-based; conditions: Staphylococcus aureus, IVES2943, 18 h
[21] = system: E. coli UBMS 90-5; test: microbe, parasite or virus in culture; format: cell-based; conditions: Escherichia coli, UBMS905, 18 h, E. coli UBMS 90-5; read-out: MIC
[22] = system: Enterococcus 12201; test: MIC, agar dilution; format: cell-based; conditions: Enterococcus, 12201, 18 h
[23] = system: S. aureus UBMS 90-1 Tet M; test: microbe, parasite or virus in culture; format: cell-based; conditions: Staphylococcus aureus, UBMS901TETM, 18 h
[24] = system: S. marcescens FPOR 8733; test: MIC, agar dilution; format: cell-based; conditions: Serratia marcescens, FPOR8733, 18 h
[25] = system: E. coli UBMS 89-1 Tet M; test: microbe, parasite or virus in culture; format: cell-based; conditions: Escherichia coli, UBMS891TETM, 18 h
[26] = system: E. coli BAJ9003 IMP MUT; test: microbe, parasite or virus in culture; format: cell-based; conditions: Escherichia coli, BAJ9003IMPMUT, 18 h
[27] = system: S. aureus UBMS 88-4; test: MIC, agar dilution; format: cell-based; conditions: Staphylococcus aureus, UBMS884, 18 h
[28] = system: E. coli MC 4100 TNIOC Tet B; test: microbe, parasite or virus in culture; format: cell-based; conditions: Escherichia coli, 18 h
[29] = system: E. coli UBMS 89-2 Tet sens.; test: MIC, agar dilution; format: cell-based; conditions: Escherichia coli, 18 h
[30] = system: E. coli PRP1 Tet A; test: microbe, parasite or virus in culture; format: cell-based; conditions: Escherichia coli, PRP1TETA, 18 h
[31] = system: E. coli MC 4100 Tet sens.; test: MIC, agar dilution; format: cell-based; conditions: Escherichia coli, 18 h
[32] = system: Ps. aeruginosa ATCC 27853; test: MIC, agar dilution; format: cell-based; conditions: Pseudomonas aeruginosa, ATCC27853, 18 h
[33] = system: Staphylococcus aureus strain Smith (tetracycline sensitive); test: Acute lethal infection in mice, S. aureus Smith; format: in vivo; conditions: for ED50: Staphylococcus aureus, 168 h, mice, S. aureus Smith (Sens), 7 day survival, read-out: ED50
[34] = S. aureus IVES 2943, read-out: MIC
[35] = Enterococcus 12201, read-out: MIC
[36] = Ps. aeruginosa ATCC 27853, read-out: MIC
[37] = Staphylococcus aureus, NEMC8769, 18 h
[38] = E. faecalis ATCC 29212, read-out: MIC

| Compound | MIC [1] [µg/mL] | MIC [2] [µg/mL] | MIC ([3]; read-out: MIC) [µg/mL] | MIC [4] [µg/mL] | MIC [5] [µg/mL] | MIC [6] [µg/mL] | MIC [7] [µg/mL] | MIC ([9]; read-out: MIC) [µg/mL] | MIC [12] [µg/mL] | MIC [13] [µg/mL] | MIC [15] [µg/mL] | MIC [16] [µg/mL] | MIC [19] [µg/mL] | MIC [21] [µg/mL] | MIC [23] [µg/mL] | MIC [25] [µg/mL] | MIC [26] [µg/mL] | MIC [27] [µg/mL] | MIC [29] [µg/mL] | MIC [31] [µg/mL] | further results |
| --- | --- | --- | --- | --- | --- | --- | --- | --- | --- | --- | --- | --- | --- | --- | --- | --- | --- | --- | --- | --- | --- |
| CC1CCN(CC(=O)Nc2ccc3c(c2O)C(=O)C2=C(O)[C@]4(O)C(=O)C(C(N)=O)=C(O)[C@@H](N(C)C)C4CC2C3)CC1 (stereo partly drawn) [A, [7S-(7alpha,10aalpha)]-N-(9-(Aminocarbonyl)-7-(dimethylamino)-5,5a,6,6a,7,10,10a,12-octahydro-1,8,10a,11-tetrahydroxy-10,12-dioxo-2-naphthacenyl]-4-methyl-1-piperidineacetamide dihydrochloride] | 0.5 | 0.5 | 2 | 0.25 | 1 | 0.5 | 0.5 | 0.25 | 1 | 1 | 0.5 | 1 | 0.5 | 0.5 | 1 | 0.25 | 0.12 | 0.5 | 0.5 | 0.25 | MIC [8]: no growth; MIC [10]: 2 µg/mL; MIC [11]: 0.25 µg/mL; MIC ([14]; read-out: MIC): 0.5 µg/mL; MIC ([17]; X. maltophilia NEMC 87210, read-out: MIC): 0.5 µg/mL; MIC [18]: 0.25 µg/mL; MIC [20, 34]: 0.5 µg/mL; MIC [22, 35]: 0.5 µg/mL; MIC [24]: 8 µg/mL; MIC [28]: 1 µg/mL; MIC [30]: 1 µg/mL; MIC [32, 36]: > 32 µg/mL |
| CCCNCC(=O)Nc1ccc2c(c1O)C(=O)C1=C(O)[C@]3(O)C(=O)C(C(N)=O)=C(O)[C@@H](N(C)C)C3CC1C2 (stereo partly drawn) [C, [4S-(4alpha,12aalpha)]-4-(Dimethylamino)-1,4,4a,5,5a,6,11,12a-octahydro-3,10,12,12a-tetrahydroxy-1,11-dioxo-9-[[(propylamino)acetyl]amino]-2-naphthacenecarboxamide dihydrochloride] | 0.06 | 0.12 | 16 | 0.12 | – | 0.25 | 0.5 | – | 0.5 | 0.5 | 0.25 | 2 | 0.25 | 0.25 | 0.25 | 0.25 | 0.06 | 0.25 | 0.25 | 0.12 | MIC ([5]; S. aureus IVES 1983, read-out: MIC): 4 µg/mL; MIC [8, 37]: 0.06 µg/mL; MIC [9]: 0.12 µg/mL; MIC ([10]; S. hemolyticus AVHAH 88-3, read-out: MIC): 0.5 µg/mL; MIC ([11]; E. coli #311 (MP), read-out: MIC): 0.5 µg/mL; ED50 ([33]; iv, Intraveneous): 1 to 2 mg/kg; ED50 ([33]; po, Oral): > 16 mg/kg; in vivo activity (in words) ([33]; tested intravenously against the minocycline sensitive organism S. aureus Smith): very good in vivo activity; MIC ([14]; read-out: MIC): 0.25 µg/mL; MIC [17]: 4 µg/mL; MIC [18, 38]: 0.12 µg/mL; MIC [20, 34]: 4 µg/mL; MIC [22]: 0.25 µg/mL; MIC ([24]; read-out: MIC): 4 µg/mL; MIC [30]: 1 µg/mL; MIC [32, 36]: 16 µg/mL |
| CCN(CC)CC(=O)Nc1ccc2c(c1O)C(=O)C1=C(O)[C@]3(O)C(=O)C(C(N)=O)=C(O)[C@@H](N(C)C)C3CC1C2 (stereo partly drawn) [O, [4S-(4alpha,12aalpha)]-9-[[(Diethylamino)acetyl]amino]-4-(dimethylamino)-1,4,4a,5,5a,6,11,12a-octahydro-3,10,12,12a-tetrahydroxy-1,11-dioxo-2-naphthacenecarboxamide dihydrochloride] | – | 0.25 | – | 0.5 | 0.5 | 0.5 | 0.5 | 0.5 | 1 | 1 | 1 | 0.5 | 0.5 | 1 | 0.5 | 0.5 | 0.12 | 0.5 | 1 | 0.5 | MIC ([1]; S. aureus UBMS 90-3, read-out: MIC): 0.25 µg/mL; MIC [3]: 2 µg/mL; MIC [8, 37]: 1 µg/mL; MIC [10]: 2 µg/mL; MIC [11]: 1 µg/mL; MIC [14]: 0.5 µg/mL; MIC [17]: 1 µg/mL; MIC [18, 38]: 0.25 µg/mL; MIC [20]: 1 µg/mL; MIC [22, 35]: 0.25 µg/mL; MIC ([24]; read-out: MIC): 8 µg/mL; MIC [28]: 1 µg/mL; MIC [32]: 32 µg/mL |
